The results in this text go back to patent US9714231B2, “Pyrrolidine GPR40 modulators” (BRISTOL-MYERS SQUIBB COMPANY, priority 2012, dated 2017).

The target in assay [1] is T1, human GPR40 (Homo sapiens, UniProt O14842). The experiment in a line: FDSS-based intracellular calcium assay (Human GRP40 in vitro assay). Details: 3xFLAG; expressed in transfected cells. Particulars: cells expressing GPR40, intracellular Ca2+ response, FDSS reader; read-out: hGPR40 EC50. It is filed as cell-based. In short, it runs like this: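 GPR40-expressing cells, plated overnight in serum-free phenol red-free DMEM, loaded with Fluo-3 in HBSS with 1.7 mM probenecid for 30 min at 37° C. Compounds in DMSO, diluted in assay buffer, added as 3× solutions; intracellular Ca^2+ response read on FDSS.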
T1 sequence (O14842 whole entry): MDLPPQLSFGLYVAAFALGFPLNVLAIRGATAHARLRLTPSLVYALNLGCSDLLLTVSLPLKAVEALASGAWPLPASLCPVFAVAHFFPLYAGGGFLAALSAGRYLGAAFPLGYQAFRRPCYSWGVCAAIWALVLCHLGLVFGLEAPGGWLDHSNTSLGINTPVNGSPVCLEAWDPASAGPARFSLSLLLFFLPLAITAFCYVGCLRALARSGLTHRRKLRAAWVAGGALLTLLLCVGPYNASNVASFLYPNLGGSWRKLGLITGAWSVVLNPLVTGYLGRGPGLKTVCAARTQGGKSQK

In assay [2] the target is T1, human GPR40.

Where a name gives a salt, the structure may show the parent alone. Read-outs that look alike come from different tables or passages of the source.

In the case of `COc1cc(N2CCC(Cc3ccc(N4C[C@H](OC)C[C@@H]4CC(=O)O)cc3)CC2)c(Cl)cn1` [Example 102, 2-((2R,4R)-1-(4-((1-(5-Chloro-2-methoxypyridin-4-yl)piperidin-4-yl)methyl)phenyl)-4-methoxypyrrolidin-2-yl)acetic acid], the half-maximal effective concentration (EC50) on human GPR40 [1] turned out to be 952 nM; at human GPR40 [2], 950 nM.

For `COc1cc(N2CCC(Oc3ccc(N4C[C@H](O)[C@@H](C)[C@@H]4CC(=O)O)c(F)c3)C(C)C2)c(Cl)cn1` (stereo partly drawn) [Example 115, 2-((2S,3S,4R)-1-(4-(((3,4-trans)-1-(5-Chloro-2-methoxypyridin-4-yl)-3-methylpiperidin-4-yl)oxy)-2-fluorophenyl)-4-hydroxy-3-methylpyrrolidin-2-yl)acetic acid], the values for the 50% effective concentration (EC50) on human GPR40 [1] and on human GPR40 [2] were 1620 nM and 1600 nM, respectively.

`CCOc1ccc(F)c(N2CCC(Oc3ccc(N4C[C@H](OC)[C@@H](C)[C@@H]4CC(=O)O)cn3)C(C)C2)c1` (stereo partly drawn) [Example 117, 2-((2S,3S,4R)-1-(6-(((3,4-trans)-1-(5-Ethoxy-2-fluorophenyl)-3-methylpiperidin-4-yl)oxy)pyridin-3-yl)-4-methoxy-3-methylpyrrolidin-2-yl)acetic acid, HCl]: the EC50 stood at 140 nM on human GPR40 [1] and 14 nM on human GPR40 [2].

On to `COc1cc(N2CCC(Oc3ccc(N4C[C@H](OC)[C@@H](C)[C@@H]4CC(=O)O)cc3)C(C)C2)c(Cl)cn1` (stereo partly drawn) [Example 119, 2-((2S,3S,4R)-1-(4-(((3,4-trans)-1-(5-Chloro-2-methoxypyridin-4-yl)-3-methylpiperidin-4-yl)oxy)phenyl)-4-methoxy-3-methylpyrrolidin-2-yl)acetic acid, HCl], for which the EC50 amounted to 75 nM on human GPR40 [1] and 11 nM on human GPR40 [2].

`CCOc1ccc(F)c(N2CCC(Oc3ccc(N4C[C@H](OC)[C@@H](C)[C@@H]4CC(=O)O)cc3)CC2)c1` [Example 121, 2-((2S,3S,4R)-1-(4-((1-(5-Ethoxy-2-fluorophenyl)piperidin-4-yl)oxy)phenyl)-4-methoxy-3-methylpyrrolidin-2-yl)acetic acid, TFA]: the EC50 on human GPR40 [1] was found to be 140 nM; on human GPR40 [2], 42 nM.

In the case of `CCOc1ccc(F)c(N2CCC(Oc3ccc(N4C[C@H](c5ccc(OC)nc5)C[C@@H]4CC(=O)O)cc3)CC2)c1` [Example 123, 2-((2R,4S)-1-(4-((1-(5-Ethoxy-2-fluorophenyl)piperidin-4-yl)oxy)phenyl)-4-(6-methoxypyridin-3-yl)pyrrolidin-2-yl)acetic acid, TFA], the EC50 at human GPR40 [1] worked out at 270 nM; on human GPR40 [2], 51 nM.

For `CCOc1ccc(F)c(N2CCC(Oc3ccc(N4C[C@H](Cc5cccc(OC)c5)C[C@@H]4CC(=O)O)cc3)CC2)c1` [Example 124, 2-((2R,4R)-1-(4-((1-(5-Ethoxy-2-fluorophenyl)piperidin-4-yl)oxy)phenyl)-4-(3-methoxybenzyl)pyrrolidin-2-yl)acetic acid, TFA], the EC50 at human GPR40 [1] was determined as 380 nM; at human GPR40 [2], 47 nM.

As to `COc1cc(N2CCC(Oc3ccc(N4C[C@H](OC)C[C@@H]4CC(=O)O)cn3)C(C)C2)c(Cl)cn1` (stereo partly drawn) [Example 132, 2-((2R,4R)-1-(6-(((3,4-trans)-1-(5-Chloro-2-methoxypyridin-4-yl)-3-methylpiperidin-4-yl)oxy)pyridin-3-yl)-4-methoxypyrrolidin-2-yl)acetic acid], the EC50 on human GPR40 [1] worked out at 250 nM; at human GPR40 [2], 55 nM.

For the molecule `COc1cc(N2CCC(Oc3ccc(N4C[C@H](C(F)(F)F)C[C@@H]4CC(=O)O)cn3)C(C)C2)c(Cl)cn1` (stereo partly drawn) [Example 133, 2-((2R,4R)-1-(6-(((3,4-trans)-1-(5-Chloro-2-methoxypyridin-4-yl)-3-methylpiperidin-4-yl)oxy)pyridin-3-yl)-4-(trifluoromethyl)pyrrolidin-2-yl)acetic acid], the EC50 on human GPR40 [1] is 380 nM; at human GPR40 [2], 49 nM.

Consider `COc1cc(N2CCC(Oc3ccc(N4C[C@H](C(F)(F)F)C[C@@H]4CC(=O)O)c(F)c3)C(C)C2)c(Cl)cn1` (stereo partly shown) [Example 138], for which the 50% effective concentration (EC50) came out at 190 nM at human GPR40 [1] and 27 nM on human GPR40 [2].

On to `COc1cc(N2CCC(Oc3ccc(N4C[C@H](OC)C[C@@H]4CC(=O)O)c(F)c3)C(C)C2)c(Cl)cn1` (stereo partly drawn) [Example 139, 2-((2R,4R)-1-(4-((3,4-trans)-1-(5-Chloro-2-methoxypyridin-4-yl)-3-methylpiperidin-4-yloxy)-2-fluorophenyl)-4-methoxypyrrolidin-2-yl)acetic acid], for which the 50% effective concentration (EC50) was determined as 230 nM on human GPR40 [1] and 22 nM on human GPR40 [2].

On to `COc1cc(N2CCC(Oc3ccc(N4C[C@H](C(F)(F)F)C[C@@H]4CC(=O)O)c(F)c3F)C(C)C2)c(Cl)cn1` (stereo partly drawn) [Example 140, 2-((2R,4R)-1-(4-((3,4-trans)-1-(5-Chloro-2-methoxypyridin-4-yl)-3-methylpiperidin-4-yloxy)-2,3-difluorophenyl)-4-(trifluoromethyl)pyrrolidin-2-yl)acetic acid], for which the half-maximal effective concentration (EC50) on human GPR40 [1] stood at 250 nM; on human GPR40 [2], 72 nM.

`COc1cc(N2CCC(Oc3ccc(N4C[C@H](OC)C[C@@H]4CC(=O)O)cc3F)C(C)C2)c(Cl)cn1` (stereo partly drawn) [Example 142, 2-((2R,4R)-1-(4-((3,4-trans)-1-(5-Chloro-2-methoxypyridin-4-yl)-3-methylpiperidin-4-yloxy)-3-fluorophenyl)-4-methoxypyrrolidin-2-yl)acetic acid, TFA]: the EC50 was determined as 270 nM at human GPR40 [1] and 31 nM at human GPR40 [2].

Regarding `COc1cc(N2CCC(Oc3cc(F)c(N4C[C@H](OC)C[C@@H]4CC(=O)O)c(F)c3)C(C)C2)c(Cl)cn1` (stereo partly drawn) [Example 144, 2-((2R,4R)-1-(4-((3,4-trans)-1-(5-Chloro-2-methoxypyridin-4-yl)-3-methylpiperidin-4-yloxy)-2,6-difluorophenyl)-4-methoxypyrrolidin-2-yl)acetic acid, TFA], the figures for the EC50 on human GPR40 [1] and on human GPR40 [2] were 3400 nM and 2500 nM, respectively.
